What follows are molecules tested against T1, rat metabotropic glutamate receptor 5 (mGluR5) (Rattus norvegicus, UniProt P31424) (assay: Calcium mobilization assay (FLIPR) for negative or positive allosteric activity, HEK 293 cells). Conditions: HEK293, negative allosteric modulation, inhibition of EC80 glutamate response; read-out: FLIPR maximum inhibition.
T1 construct: expressed in transfected cells; host or cells: HEK 293
Assay type: cell-based
Method in brief: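 HEK 293 cells stably expressing rat mGluR5, Fluo-4 loaded in HEPES-buffered HBSS pH 7.4 with 0.1% BSA and probenecid. Compound added with EC20 (potentiation) or EC80 (inhibition) glutamate; fluorescence read over 3 min at room temperature. Basal-subtracted maximum fluorescence change fitted to Hill equation.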

T1 sequence (P31424 21-1171 isoform P31424-2 limits assumed): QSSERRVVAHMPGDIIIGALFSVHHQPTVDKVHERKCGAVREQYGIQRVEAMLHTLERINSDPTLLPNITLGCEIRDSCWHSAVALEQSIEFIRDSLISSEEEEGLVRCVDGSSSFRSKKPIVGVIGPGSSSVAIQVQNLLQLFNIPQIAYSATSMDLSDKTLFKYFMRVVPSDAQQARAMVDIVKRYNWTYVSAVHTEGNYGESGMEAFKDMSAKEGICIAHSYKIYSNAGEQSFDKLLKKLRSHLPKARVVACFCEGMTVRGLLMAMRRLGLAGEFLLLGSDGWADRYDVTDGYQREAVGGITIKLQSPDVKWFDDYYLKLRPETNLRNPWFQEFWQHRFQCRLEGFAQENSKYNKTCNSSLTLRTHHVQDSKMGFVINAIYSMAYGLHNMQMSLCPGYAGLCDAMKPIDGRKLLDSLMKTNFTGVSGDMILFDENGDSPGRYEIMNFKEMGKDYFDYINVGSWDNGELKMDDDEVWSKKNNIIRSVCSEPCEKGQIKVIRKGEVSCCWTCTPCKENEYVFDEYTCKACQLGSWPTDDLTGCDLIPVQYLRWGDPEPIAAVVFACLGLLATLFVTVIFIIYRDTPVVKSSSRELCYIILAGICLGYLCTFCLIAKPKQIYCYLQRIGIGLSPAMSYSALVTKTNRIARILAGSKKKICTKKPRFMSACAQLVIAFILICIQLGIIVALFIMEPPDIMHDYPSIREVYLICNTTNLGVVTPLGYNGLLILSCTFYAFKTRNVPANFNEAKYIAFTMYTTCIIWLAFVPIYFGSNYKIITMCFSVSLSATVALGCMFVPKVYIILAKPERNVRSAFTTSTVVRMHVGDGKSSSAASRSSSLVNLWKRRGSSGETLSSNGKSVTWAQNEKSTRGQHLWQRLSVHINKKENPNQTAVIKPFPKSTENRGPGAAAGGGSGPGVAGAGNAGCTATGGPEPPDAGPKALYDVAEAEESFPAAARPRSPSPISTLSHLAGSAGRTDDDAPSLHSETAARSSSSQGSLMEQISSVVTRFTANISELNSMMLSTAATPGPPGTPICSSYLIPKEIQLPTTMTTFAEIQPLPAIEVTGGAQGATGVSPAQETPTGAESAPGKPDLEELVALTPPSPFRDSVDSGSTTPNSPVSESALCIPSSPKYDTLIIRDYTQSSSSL

| Emax | SMILES |
| --- | --- |
| 70 to 99% | Cc1cccc(C(=O)NC23CC4CC(C2)CC(NC(=O)c2cccc(C(N)=O)n2)(C4)C3)n1 [Example 133, Pyridine-2,6-dicarboxylic acid 2-amide 6-({3-[(6-methyl-pyridine-2-carbonyl)-amino]-adamantan-1-yl}-amide)] |
| 63 to 99% | Cc1cccc(C(=O)NC23CC4CC(C2)CC(NC(=O)c2nc5ccccc5s2)(C4)C3)n1 [Example 36, Benzothiazole-2-carboxylic acid {3-[(6-methyl-pyridine-2-carbonyl)-amino]-adamantan-1-yl}-amide] |
| 63 to 99% | Cc1cccc(C(=O)NC23CC4CC(CC(NC(=O)c5ccc6nccn6c5)(C4)C2)C3)n1 [Example 53, Imidazo[1,2-a]pyridine-6-carboxylic acid {3-[(6-methyl-pyridine-2-carbonyl)-amino]-adamantan-1-yl}-amide] |
| 63 to 99% | Cc1ccnc(C(=O)NC23CC4CC(C2)CC(NC(=O)c2cc(C)ccn2)(C4)C3)c1 [Example 11, N,N′-(1,3-Adamantylene)bis(4-methyl-pyridine-2-carboxamide)] |
| 63 to 99% | O=C(NC12CC3CC(C1)CC(NC(=O)c1ccccn1)(C3)C2)c1cccc(F)c1 [Example 59, Pyridine-2-carboxylic acid [3-(3-fluoro-benzoylamino)-adamantan-1-yl]-amide] |
| 70 to 99% | Cc1cccc(C(=O)NC23CC4CC(CC(NC(=O)c5cccc(N(C)C)c5)(C4)C2)C3)n1 [Example 114, 6-Methyl-pyridine-2-carboxylic acid [3-(3-dimethyl-amino-benzoylamino)-adamantan-1-yl]-amide] |
| 70 to 99% | Cc1cccc(C(=O)NC23CC4CC(C2)CC(NC(=O)c2cccc(N)n2)(C4)C3)n1 [Example 117, 6-Methyl-pyridine-2-carboxylic acid {3-[(6-aminopyridine-2-carbonyl)-amino]-adamantan-1-yl}-amide] |
| 70 to 99% | Cc1cccc(C(=O)NC23CC4CC(CC(NC(=O)c5cc(F)ccn5)(C4)C2)C3)n1 [Example 125, 6-Methyl-pyridine-2-carboxylic acid {3-[(4-fluoropyridine-2-carbonyl)-amino]-adamantan-1-yl}-amide] |
| 70 to 99% | Cc1cncc(C(=O)NC23CC4CC(C2)CC(NC(=O)c2cc(F)ccc2F)(C4)C3)n1 [Example 148, 6-Methyl-pyrazine-2-carboxylic acid [3-(2,5-difluoro-benzoylamino)-adamantan-1-yl]-amide] |
| 63 to 99% | Cc1cccc(C(=O)NC23CC4CC(CC(NC(=O)c5cccc(F)c5)(C4)C2)C3)n1 [Example 30, 6-Methyl-pyridine-2-carboxylic acid [3-(3-fluoro-benzoylamino)-adamantan-1-yl]-amide] |
| 70 to 99% | Cc1cccc(C(=O)NC23CC4CC(C2)CC(NC(=O)c2cccc(F)n2)(C4)C3)n1 [Example 135, 6-Methyl-pyridine-2-carboxylic acid {3-[(6-fluoro-pyridine-2-carbonyl)-amino]-adamantan-1-yl}-amide] |
| 63 to 99% | Cc1ccn2cc(C(=O)NC34CC5CC(CC(NC(=O)c6cccc(C)n6)(C5)C3)C4)nc2c1 [Example 56, 7-Methyl-imidazo[1,2-a]pyridine-2-carboxylic acid {3-[(6-methyl-pyridine-2-carbonyl)-amino]-adamantan-1-yl}-amide] |
| 63 to 99% | Cc1cncc(C(=O)NC23CC4CC(CC(NC(=O)c5cc(Br)ccn5)(C4)C2)C3)n1 [Example 176, 6-Methyl-pyrazine-2-carboxylic acid {3-[(4-bromo-pyridine-2-carbonyl)-amino]-adamantan-1-yl}-amide] |

Second part, the molecule before the results:

| SMILES | Emax |
| --- | --- |
| Cc1cccc(C(=O)NC23CC4CC(C2)CC(NC(=O)c2cccc(N5CCC[C@H]5C(N)=O)n2)(C4)C3)n1 [Example 239, 6-((S)-2-Carbamoyl-pyrrolidin-1-yl)-pyridine-2-carboxylic acid {3-[(6-methyl-pyridine-2-carbonyl)-amino]-adamantan-1-yl}-amide] | 63 to 99% |
| Cc1cncc(C(=O)NC23CC4CC(C2)CC(NC(=O)c2cccc(Cl)c2F)(C4)C3)n1 [Example 152, 6-Methyl-pyrazine-2-carboxylic acid [3-(3-chloro-2-fluoro-benzoylamino)-adamantan-1-yl]-amide] | 70 to 99% |
| COc1cccc(C(=O)NC23CC4CC(C2)CC(NC(=O)c2cncc(C)n2)(C4)C3)c1 [Example 146, 6-Methyl-pyrazine-2-carboxylic acid [3-(3-methoxy-benzoylamino)-adamantan-1-yl]-amide] | 70 to 99% |
| O=C(NC12CC3CC(C1)CC(NC(=O)c1cccs1)(C3)C2)c1cccs1 [Example 14, N,N′-(1,3-adamantylene)bis(thiophene-2-carboxamide)] | 63 to 99% |
| O=C(NC12CC3CC(C1)CC(NC(=O)c1cccc(-n4ccnc4)n1)(C3)C2)c1cccc(F)c1 [Example 255, 6-Imidazol-1-yl-pyridine-2-carboxylic acid [3-(3-fluoro-benzoylamino)-adamantan-1-yl]-amide] | 63 to 99% |
| COCCCNc1cccc(C(=O)NC23CC4CC(CC(NC(=O)c5cccc(F)c5)(C4)C2)C3)n1 [Example 241, 6-(3-Methoxy-propylamino)-pyridine-2-carboxylic acid [3-(3-fluoro-benzoylamino)-adamantan-1-yl]-amide] | 63 to 99% |
| CN(CCO)c1cccc(C(=O)NC23CC4CC(CC(NC(=O)c5cccc(F)c5)(C4)C2)C3)n1 [Example 213, 6-[(2-Hydroxy-ethyl)-methyl-amino]-pyridine-2-carboxylic acid [3-(3-fluoro-benzoylamino)-adamantan-1-yl]-amide] | 63 to 99% |
| O=C(NC12CC3CC(C1)CC(NC(=O)c1ccc4nccn4c1)(C3)C2)c1cccc(F)c1 [Example 101, Imidazo[1,2-a]pyridine-6-carboxylic acid [3-(3-fluoro-benzoylamino)-adamantan-1-yl]-amide] | 63 to 99% |
| O=C(NC12CC3CC(C1)CC(NC(=O)c1onc4ccccc14)(C3)C2)c1ccccn1 [Example 62, Benzo[c]isoxazole-3-carboxylic acid {3-[(pyridine-2-carbonyl)-amino]-adamantan-1-yl}-amide] | 63 to 99% |
| Cc1cncc(C(=O)NC23CC4CC(CC(NC(=O)c5ccc(F)c(Cl)c5)(C4)C2)C3)n1 [Example 149, 6-Methyl-pyrazine-2-carboxylic acid [3-(3-chloro-4-fluoro-benzoylamino)-adamantan-1-yl]-amide] | 70 to 99% |
| CN(C)CCNc1cccc(C(=O)NC23CC4CC(CC(NC(=O)c5ccccn5)(C4)C2)C3)n1 [Example 222, 6-(2-Dimethylamino-ethylamino)-pyridine-2-carboxylic acid {3-[(pyridine-2-carbonyl)-amino]-adamantan-1-yl}-amide] | 63 to 99% |
| COc1cc(C(=O)NC23CC4CC(C2)CC(NC(=O)c2cncc(C)n2)(C4)C3)ccn1 [Example 154, 6-Methyl-pyrazine-2-carboxylic acid {3-[(2-methoxy-pyridine-4-carbonyl)-amino]-adamantan-1-yl}-amide] | 70 to 99% |
| O=C(NC12CC3CC(C1)CC(NC(=O)c1cccc(N4CCC[C@@H]4CO)n1)(C3)C2)c1cccc(F)c1 [Example 250, 6-((R)-2-Hydroxymethyl-pyrrolidin-1-yl)-pyridine-2-carboxylic acid [3-(3-fluoro-benzoylamino)-adamantan-1-yl]-amide] | 63 to 99% |

— US8716284B2, “Adamantyl diamide derivatives and uses of same” (H. Lundbeck A/S, priority 2008, dated 2014)
